Data reported in ChEMBL document CHEMBL1201862, “PubChem BioAssay data set” (2004).
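How tested: cells in 96-well plates exposed to compound for 48 hours at five concentrations. GI50 marks 50% less growth.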 Calls of active or inactive are those of the source. Cut-off read from the data, not from the text of the source: active = GI50 up to about 1.1 µM and inactive = higher.

Experiments:
Assay in all cases: NCI anticancer screen, dose series, 48 h
CAKI-1 = system: CAKI-1
EKVX = system: EKVX
HCC 2998 = system: HCC 2998
HCT-116 = system: HCT-116
HL-60 = system: HL-60
HT-29 = system: HT-29
LOX IMVI = system: LOX IMVI
Malme-3M = system: Malme-3M
NCI-H226 = system: NCI-H226
NCI-H23 = system: NCI-H23
NCI-H522 = system: NCI-H522
OVCAR-8 = system: OVCAR-8
SF-539 = system: SF-539
SN12C = system: SN12C
SNB-19 = system: SNB-19
SNB-75 = system: SNB-75
SW-620 = system: SW-620
UACC-257 = system: UACC-257
UO-31 = system: UO-31
TK-10 = system: TK-10

Measured: GI50

O=C(NC(Cc1ccc(I)cc1)C(=O)O)c1ccc(Br)cc1 (configuration not stated)
inactive: CAKI-1 > 100 µM | EKVX 17.2 µM | HCC 2998 25.9 µM | HCT-116 > 100 µM | HL-60 > 100 µM | HT-29 > 100 µM | LOX IMVI > 100 µM | Malme-3M 80.9 µM | NCI-H226 > 100 µM | NCI-H23 > 100 µM | NCI-H522 64.9 µM | OVCAR-8 > 100 µM | SF-539 > 100 µM | SN12C > 100 µM | SNB-19 > 86.7 µM | SNB-75 30.1 µM | SW-620 > 100 µM | UACC-257 > 100 µM | UO-31 > 100 µM

Cc1cccc(C(O)c2cccnc2)c1O (configuration not stated)
inactive: CAKI-1 > 100 µM | EKVX > 100 µM | HCC 2998 44.2 µM | HCT-116 > 100 µM | HL-60 > 100 µM | HT-29 > 100 µM | LOX IMVI > 100 µM | Malme-3M > 100 µM | NCI-H226 > 100 µM | NCI-H23 > 100 µM | NCI-H522 > 100 µM | OVCAR-8 > 100 µM | SF-539 > 100 µM | SN12C > 100 µM | SNB-19 > 100 µM | SNB-75 > 100 µM | SW-620 > 100 µM | TK-10 > 100 µM | UACC-257 66.7 µM | UO-31 > 100 µM

Clc1nc2c(N3CCCC3)nc(N3CCNCC3)nc2[nH]1
inactive: CAKI-1 39 µM | EKVX 17.3 µM | HCC 2998 15.9 µM | HCT-116 16 µM | HL-60 19.5 µM | HT-29 17.4 µM | LOX IMVI 15.8 µM | Malme-3M 20.7 µM | NCI-H226 > 100 µM | NCI-H23 16.9 µM | NCI-H522 17 µM | OVCAR-8 16 µM | SF-539 18.4 µM | SN12C 18.6 µM | SNB-19 17.6 µM | SNB-75 20.1 µM | SW-620 21.2 µM | TK-10 57.5 µM | UACC-257 19.3 µM | UO-31 15.7 µM

O=c1c(-c2ccccc2)c(SCCN2CCCCCC2)n(-c2ccccc2)c(=S)n1-c1ccccc1
inactive: CAKI-1 22.9 µM | EKVX 17.7 µM | HCC 2998 3.52 µM | HL-60 11 µM | LOX IMVI 50.7 µM | Malme-3M 12.5 µM | NCI-H226 94.8 µM | NCI-H23 68.9 µM | NCI-H522 20.3 µM | OVCAR-8 80 µM | SF-539 > 100 µM | SNB-75 > 100 µM | SW-620 37.2 µM | TK-10 48.4 µM | UACC-257 86.3 µM

COc1cc(/N=N\c2ccc(OC)c(S(=O)(=O)O)c2)c(C)cc1/N=N\c1ccc(/C=C/c2ccc(/N=[N+](/[O-])c3ccc(/C=C/c4ccc(/N=N/c5cc(C)c(/N=N\c6ccc(OC)c(S(=O)(=O)O)c6)cc5OC)cc4S(=O)(=O)O)c(S(=O)(=O)O)c3)cc2S(=O)(=O)O)c(S(=O)(=O)O)c1
inactive: EKVX > 100 µM | HCC 2998 > 100 µM | HCT-116 > 100 µM | HL-60 69.8 µM | HT-29 > 100 µM | LOX IMVI > 100 µM | Malme-3M > 100 µM | NCI-H226 > 52.1 µM | NCI-H23 > 100 µM | NCI-H522 > 100 µM | OVCAR-8 > 100 µM | SF-539 > 100 µM | SN12C > 100 µM | SNB-19 > 100 µM | SNB-75 58.2 µM | SW-620 > 100 µM | UACC-257 > 100 µM | UO-31 > 100 µM
